Like-named read-outs stand apart in the source and are kept apart here.
Assays:
[1] = biological target: T1, CCKB receptor (Cavia porcellus, UniProt H0VZC5); test: 125I-CCK-8 receptor binding assay, CCKB (guinea pig cerebral cortex)
T1 sequence (H0VZC5 1-426): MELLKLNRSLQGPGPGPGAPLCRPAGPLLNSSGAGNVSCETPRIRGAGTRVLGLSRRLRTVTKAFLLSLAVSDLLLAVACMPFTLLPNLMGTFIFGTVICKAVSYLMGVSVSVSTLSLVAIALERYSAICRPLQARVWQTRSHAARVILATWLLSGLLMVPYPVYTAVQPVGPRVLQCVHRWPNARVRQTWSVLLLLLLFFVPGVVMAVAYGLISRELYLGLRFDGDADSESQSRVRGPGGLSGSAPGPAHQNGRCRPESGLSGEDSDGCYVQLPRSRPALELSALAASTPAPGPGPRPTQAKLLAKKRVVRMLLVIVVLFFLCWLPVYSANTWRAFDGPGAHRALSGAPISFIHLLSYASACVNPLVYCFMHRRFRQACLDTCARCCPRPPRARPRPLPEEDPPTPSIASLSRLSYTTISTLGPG
Protocol: CCKA and CCKB receptor binding assays were performed, by using guinea pig cerebral cortex (CCKB) or rat pancreas (CCKA). […]. J. Pharmacol., 269, 249-254]. Pancreatic membranes were prepared in a similar way but by Charpentier et al [(1988), Cyclic cholecystokinin analogues with high selectivity for central receptors., Proc Natl Acad Sci USA, 85, 1968-1972]. The […] CCK binding assay: Tissues were homogenised in ice cold sucrose (0.32 M, 25 ml) for 15 strokes at 500 rpm and centrifuged at 13000 rpm for 10 mins. The supernatant was re-centrifuged at 13000 rpm for 20 mins. The resulting pellet was re-dispersed to the required volume of buffer at 500 rpm and stored in aliquots at […].
(§1) The samples were incubated {with membranes (0.1 mg/ml)} in 20 mM Hepes, 1 mM EGTA, 5 mM MgCl2, 150 mm NaCl, 0.25 mg/ml bacitracin at pH 6.5 for 2 hrs at RT and then […] by centrifugation at 1100 rpm for 5 minutes. The membrane pellets were washed twice with water and the bound radioactivity was measured in a Packard Cobra Auto-gamma counter (B5005). All binding assays were carried out with L-363, 260 as an internal non-specific standard. Controls (no compound) were also added. All samples were made in duplicate and repeated twice. All compounds were initially screened for percentage inhibition at 20 μM.

[2] = biological target: T2, CCKA receptor (Rattus norvegicus, UniProt P30551); test: 125I-CCK-8 receptor binding assay, CCKA (rat pancreas); settings: for Ratio CCKB:CCKA: ratio of IC50 values
T2 construct: Pancreatic membranes were prepared in a similar way; from tissue; host or cells: rat pancreas membranes
T2 sequence (P30551 1-444): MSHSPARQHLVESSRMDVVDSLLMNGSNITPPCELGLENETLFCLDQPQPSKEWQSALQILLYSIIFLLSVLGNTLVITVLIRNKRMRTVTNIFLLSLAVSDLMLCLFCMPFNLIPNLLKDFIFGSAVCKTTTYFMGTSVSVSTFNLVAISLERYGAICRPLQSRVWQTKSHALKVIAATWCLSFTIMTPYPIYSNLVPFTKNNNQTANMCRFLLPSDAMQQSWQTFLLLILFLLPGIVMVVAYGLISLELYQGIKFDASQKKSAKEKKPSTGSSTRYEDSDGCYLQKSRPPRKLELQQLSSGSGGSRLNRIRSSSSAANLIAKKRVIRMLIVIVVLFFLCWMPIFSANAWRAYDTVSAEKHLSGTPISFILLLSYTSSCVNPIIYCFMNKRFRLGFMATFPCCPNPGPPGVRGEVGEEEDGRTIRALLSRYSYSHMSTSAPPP
Protocol: CCKA and CCKB receptor binding assays were performed, by using guinea pig cerebral cortex (CCKB) or rat pancreas (CCKA). Male guinea pig brain tissues were prepared according to the modified method described by Saita et al [(1994), Characterization of YM022: its CCKB/gastrin receptor binding profile and antagonism to CCK-8-induced Ca2+ mobilization., Eur. J. Pharmacol., 269, 249-254]. Pancreatic membranes were prepared in a similar way but by Charpentier et al [(1988), Cyclic cholecystokinin analogues with high selectivity for central receptors., Proc Natl Acad Sci USA, 85, 1968-1972]. The […] CCK binding assay: Tissues were homogenised in ice cold sucrose (0.32 M, 25 ml) for 15 strokes at 500 rpm and centrifuged at 13000 rpm for 10 mins. The supernatant was re-centrifuged at 13000 rpm for 20 mins. The resulting pellet was re-dispersed to the required volume of buffer at 500 rpm and stored in aliquots at […].
as §1

[3] = IC50 CCKB, Table 4, alkylated oxazepam derivatives

## CC(=O)c1ccccc1NC1N=C(c2ccccc2)c2cc(Cl)ccc2NC1=O (stereo not shown) [Example 18, 3-(2 acetylanilino)-7-chloro-5-phenyl-1,3-dihydro-2H-1,4-benzodiazepin-2-one]
[1]; IC50 CCKB, Table 2
  IC50: 8.4 µM

## C=CCN1C(=O)C(O)N=C(c2ccccc2)c2cc(Cl)ccc21 (stereo not shown) [Example 60, 7-chloro-3-hydroxy-5-phenyl-1-allyl-1,3-dihydro-2H-1,4-benzodiazepin-2-one]
[1]; [3]
  IC50: 0.98 µM

## O=C1Nc2ccc(Cl)cc2C(c2ccccc2)=NC1Nc1ccccc1 (stereo not shown) [Example 53]
[2]; Table 3
  IC50: 0.24 µM
  Ratio CCKB:CCKA: 17
[1]; IC50 CCKB, Table 3
  IC50: 4.1 µM

## CN(Cc1ccccc1)C1N=C(c2ccccc2)c2cc(Cl)ccc2NC1=O (single isomer, unassigned) [Example 6]
[1]; CCKB IC50, Table 1
  IC50: 0.86 µM

## CC(C)N(C1CCCCC1)C1N=C(c2ccccc2)c2cc(Cl)ccc2NC1=O (single isomer, unassigned) [Example 8]
[1]; IC50 CCKB
  IC50: 0.19 µM

## COc1ccc(NC2N=C(c3ccccc3)c3cc(Cl)ccc3NC2=O)cc1 (stereo not shown) [Example 43, 7-chloro-3-(4-methoxyanilino)-5-phenyl-1,3-dihydro-2H-1,4-benzodiazepin-2-one]
[2]; Table 3
  IC50: ≥ 20 µM
[1]; IC50 CCKB, Table 3
  IC50: > 10 µM

## CC(C)N(C1CCCCC1)C1N=C(c2ccccc2)c2cc(Cl)ccc2NC1=O (stereo not shown) [Example 33, 7-chloro-3-(isopropylcyclohexylamino)-5-phenyl-1,3-dihydro-2H-1,4-benzodiazepin-2-one]
[1]; IC50 CCKB, Table 2
  IC50: > 15 µM

## O=C1Nc2ccc(Cl)cc2C(c2ccccc2)=NC1Nc1ccc([N+](=O)[O-])cc1 (stereo not shown) [Example 37]
[2]; Table 3
  IC50: > 20 µM
[1]; IC50 CCKB, Table 3
  IC50: 8.5 µM

## Cc1cccc(C)c1NC1N=C(c2ccccc2)c2cc(Cl)ccc2NC1=O (stereo not shown) [Example 47]
[2]; Table 3
  IC50: 10 µM
[1]; IC50 CCKB, Table 3
  IC50: > 10 µM

## Cc1ccc(NC2N=C(c3ccccc3)c3cc(Cl)ccc3NC2=O)cc1C (stereo not shown) [Example 48]
[2]; Table 3
  IC50: 0.015 µM
  Ratio CCKB:CCKA: 61
[2]; dimethylanilines with at least one meta group
  CCKA binding activity in words: equally active
[1]; IC50 CCKB, Table 3
  IC50: 0.92 µM

## COc1ccccc1NC1N=C(c2ccccc2)c2cc(Cl)ccc2NC1=O (stereo not shown) [Example 41]
[2]; Table 3
  IC50: > 20 µM
[1]; IC50 CCKB, Table 3
  IC50: 1.5 µM

## O=C1Nc2ccc(Cl)cc2C(c2ccccc2)=NC1N1CCCc2ccccc21 (stereo not shown) [Example 17, 7-chloro-3-[3,4-dihydroquinolin-1(2H)-yl]-5-phenyl-1,3-dihydro-2H-1,4-benzodiazepin-2-one]
[1]; IC50 CCKB, Table 2
  IC50: 7.2 µM

## O=C1Nc2ccc(Cl)cc2C(c2ccccc2)=NC1Nc1cccc(Cl)c1 (single isomer, unassigned) [Example 2]
[1]; CCKB IC50, Table 1
  IC50: 0.32 µM

## CCCCc1ccc(NC2N=C(c3ccccc3)c3cc(Cl)ccc3NC2=O)cc1 (stereo not shown) [Example 3]
[1]; CCKB IC50, Table 1
  IC50: 0.58 µM

## O=C1Nc2ccc(Cl)cc2C(c2ccccc2)=NC1Nc1ccccc1[N+](=O)[O-] (stereo not shown) [Example 35, 7-chloro-3-(2-nitroanilino)-5-phenyl-1,3-dihydro-2H-1,4-benzodiazepin-2-one]
[2]; Table 3
  IC50: > 20 µM
[1]; IC50 CCKB, Table 3
  IC50: 7.5 µM

## CN(c1ccccc1)C1N=C(c2ccccc2)c2cc(Cl)ccc2NC1=O (stereo not shown) [Example 24, 7-chloro-3-(methylanilino)-5-phenyl-1,3-dihydro-2H-1,4-benzodiazepin-2-one]
[1]; IC50 CCKB
  IC50: 0.15 µM

## O=C(CN1C(=O)C(O)N=C(c2ccccc2)c2cc(Cl)ccc21)c1ccccc1 (stereo not shown) [Example 62, 7-chloro-3-hydroxy-5-phenyl-1-phenacyl-1,3-dihydro-2H-1,4-benzodiazepin-2-one]
[1]; [3]
  IC50: 0.2 µM

## CCN(C1CCCCC1)C1N=C(c2ccccc2)c2cc(Cl)ccc2NC1=O (stereo not shown) [Example 34, 7-chloro-3-(ethylcyclohexylamino)-5-phenyl-1,3-dihydro-2H-1,4-benzodiazepin-2-one]
[1]; IC50 CCKB, Table 2
  IC50: > 15 µM

## O=C1Nc2ccc(Cl)cc2C(c2ccccc2)=NC1N1CCOCC1 (stereo not shown) [Example 11]
[1]; CCKB IC50, Table 1
  IC50: 2.7 µM

## COc1cccc(NC2N=C(c3ccccc3)c3cc(Cl)ccc3NC2=O)c1 (stereo not shown) [Example 19, 7-chloro-3-(3-methoxyanilino)-5-phenyl-1,3-dihydro-2H-1,4-benzodiazepin-2-one]
[1]; IC50 CCKB, Table 2
  IC50: 1.5 µM

## CCOC(=O)N1C(=O)C(O)N=C(c2ccccc2)c2cc(Cl)ccc21 (stereo not shown) [Example 61, 7-chloro-3-hydroxy-5-phenyl-1-ethoxycarbonyl-1,3-dihydro-2H-1,4-benzodiazepin-2-one]
[1]; [3]
  IC50: 0.69 µM

## COc1cc(NC2N=C(c3ccccc3)c3cc(Cl)ccc3NC2=O)cc(OC)c1C(C)=O (stereo not shown) [Example 21, 3-(4-acetyl-3,5-dimethoxyanilino)-7-chloro-5-phenyl-1,3-dihydro-2H-1,4-benzodiazepin-2-one]
[1]; Table 2, read-out: IC50 CCKB
  IC50: 5.3 µM

## O=C1Nc2ccc(Cl)cc2C(c2ccccc2)=NC1Nc1ccccc1 (stereo not shown) [Example 22, 3-anilino-7-chloro-5-phenyl-1,3-dihydro-2H-1,4-benzodiazepin-2-one]
[1]; IC50 CCKB, Table 2
  IC50: 4.1 µM

## Cc1c(NC2N=C(c3ccccc3)c3cc(Cl)ccc3NC2=O)c(=O)n(-c2ccccc2)n1C (stereo not shown) [Example 13]
[1]; Table 2, read-out: IC50 CCKB
  IC50: 9.3 µM

## O=C1Nc2ccc(Cl)cc2C(c2ccccc2)=NC1N1CCCCC1 (stereo not shown) [Example 32, 7-chloro-3-(piperidin-1-yl)-5-phenyl-1,3-dihydro-2H-1,4-benzodiazepin-2-one]
[1]; IC50 CCKB, Table 2
  IC50: > 15 µM

## Cc1ccc(NC2N=C(c3ccccc3)c3cc(Cl)ccc3NC2=O)cc1C (stereo not shown) [Example 31, 7-chloro-3-(3,4-dimethylanilino)-5-phenyl-1,3-dihydro-2H-1,4-benzodiazepin-2-one]
[1]; IC50 CCKB
  IC50: 0.92 µM

## CN(Cc1ccccc1)C1N=C(c2ccccc2)c2cc(Cl)ccc2NC1=O (stereo not shown) [Example 25]
[1]; IC50 CCKB, Table 2
  IC50: 2.9 µM

## CCCNC1N=C(c2ccccc2)c2cc(Cl)ccc2NC1=O (stereo not shown) [Example 28, 3-(propylamino)-7-chloro-5-phenyl-1,3-dihydro-2H-1,4-benzodiazepin-2-one]
[1]; IC50 CCKB, Table 2
  IC50: 8.9 µM

## O=C1Nc2ccc(Cl)cc2C(c2ccccc2)=NC1NC1CCCCC1 (stereo not shown) [Example 30, 7-chloro-3-(cyclohexylamino)-5-phenyl-1,3-dihydro-2H-1,4-benzodiazepin-2-one]
[1]; IC50 CCKB, Table 2
  IC50: 10.1 µM

## COc1ccc(NC2N=C(c3ccccc3)c3cc(Cl)ccc3NC2=O)cc1OC (stereo not shown) [Example 20, 7-chloro-3-(3,4-dimethoxyanilino)-5-phenyl-1,3-dihydro-2H-1,4-benzodiazepin-2-one]
[1]; IC50 CCKB, Table 2
  IC50: 1.2 µM

## C#CCN1C(=O)C(O)N=C(c2ccccc2)c2cc(Cl)ccc21 (stereo not shown) [Example 58, 7-chloro-3-hydroxy-5-phenyl-1-prop-2-ynyl-1,3-dihydro-2H-1,4-benzodiazepin-2-one]
[1]; [3]
  IC50: 0.96 µM

## COc1cccc(NC2N=C(c3ccccc3)c3cc(Cl)ccc3NC2=O)c1 (stereo not shown) [Example 42]
[2]
  IC50: 0.01 µM
[2]; Table 3
  Ratio CCKB:CCKA: 450

## O=C1Nc2ccc(Cl)cc2C(c2ccccc2)=NC1NCc1ccccc1 (stereo not shown) [Example 23, 3-(benzylamino)-7-chloro-5-phenyl-1,3-dihydro-2H-1,4-benzodiazepin-2-one]
[1]; IC50 CCKB, Table 2
  IC50: 6 µM

## O=C1C(O)N=C(c2ccccc2)c2cc(Cl)ccc2N1Cc1ccccc1 (stereo not shown) [Example 59, 7-chloro-3-hydroxy-5-phenyl-1-benzyl-1,3-dihydro-2H-1,4-benzodiazepin-2-one]
[1]; [3]
  IC50: 0.76 µM

## Cc1ccc(NC2N=C(c3ccccc3)c3cc(Cl)ccc3NC2=O)cc1C (stereo not shown) [Example 4]
[1]; CCKB IC50, Table 1
  IC50: 0.66 µM
